Test results as given in ChEMBL document CHEMBL1201862, “PubChem BioAssay data set” (2004).
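Values below derive from 48-hour exposures of cells grown in 96-well plates, with endpoints linearly interpolated between the two concentrations bracketing the appropriate inhibition level. GI50 = concentration required for 50% inhibition of growth.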 Calls of active or inactive are those of the source. No stated cut-off is given here; in the data, active = GI50 up to about 1.1 µM and inactive = higher.

What was measured:
Assay in all cases: inhibition of tumour cell growth, NCI panel, 48 h
A498 = test system: A498
BT-549 = test system: BT-549
HCT-15 = test system: HCT-15
HL-60 = test system: HL-60
HOP-62 = test system: HOP-62
HOP-92 = test system: HOP-92
HT-29 = test system: HT-29
Hs-578T = test system: Hs-578T
IGROV-1 = test system: IGROV-1
LOX IMVI = test system: LOX IMVI
Malme-3M = test system: Malme-3M
NCI-H226 = test system: NCI-H226
NCI-H522 = test system: NCI-H522
NCI/ADR-RES = test system: NCI/ADR-RES
OVCAR-5 = test system: OVCAR-5
RPMI-8226 = test system: RPMI-8226
SF-295 = test system: SF-295
SNB-19 = test system: SNB-19
UO-31 = test system: UO-31
RXF 393 = test system: RXF 393

SMILES | GI50 (A498) | GI50 (BT-549) | GI50 (HCT-15) [µM] | GI50 (HL-60) | GI50 (HOP-62) | GI50 (HOP-92) | GI50 (HT-29) | GI50 (Hs-578T) | GI50 (IGROV-1) | GI50 (LOX IMVI) | GI50 (Malme-3M) | GI50 (NCI-H226) | GI50 (NCI-H522) | GI50 (NCI/ADR-RES) | GI50 (OVCAR-5) | GI50 (RPMI-8226) | GI50 (SF-295) | GI50 (SNB-19) | GI50 (UO-31) | GI50 (RXF 393)
C/C(=N\Nc1ccc([N+](=O)[O-])cc1[N+](=O)[O-])c1sc(-n2nc(-c3ccccc3)cc2-c2ccccc2)nc1C | 41 µM (inactive) | 36.9 µM (inactive) | 38.6 | 12.6 µM (inactive) | 70.3 µM (inactive) | 23.9 µM (inactive) | 17 µM (inactive) | 78.9 µM (inactive) | 0.897 µM (active) | 11.9 µM (inactive) | 76.7 µM (inactive) | 34.1 µM (inactive) | 22 µM (inactive) | 21.9 µM (inactive) | > 100 µM (inactive) | 20.9 µM (inactive) | 35.7 µM (inactive) | 93.5 µM (inactive) | 19.8 µM (inactive) | –
COc1cc2c(cc1OCCCOc1cc3c(cc1OC)C(=O)N1CCC[C@H]1C(=O)N3)N=C[C@@H]1CCCN1C2=O | 17.3 µM (inactive) | 10.3 µM (inactive) | 71.3 | 8.34 µM (inactive) | 34.2 µM (inactive) | – | 16.9 µM (inactive) | 29 µM (inactive) | 14.6 µM (inactive) | 3.07 µM (inactive) | 10.9 µM (inactive) | 14.6 µM (inactive) | 1.73 µM (inactive) | 76.7 µM (inactive) | 25.1 µM (inactive) | 6.46 µM (inactive) | 15.8 µM (inactive) | 27.3 µM (inactive) | 18.5 µM (inactive) | 13.3 µM (inactive)
O=c1c2c3c(sc2nc2n1N=CN(c1ccccc1)C2)CCCC3 | > 100 µM (inactive) | > 100 µM (inactive) | > 100 | – | > 100 µM (inactive) | > 100 µM (inactive) | > 100 µM (inactive) | > 100 µM (inactive) | > 100 µM (inactive) | > 100 µM (inactive) | > 100 µM (inactive) | > 100 µM (inactive) | > 100 µM (inactive) | > 100 µM (inactive) | > 100 µM (inactive) | > 100 µM (inactive) | > 100 µM (inactive) | > 100 µM (inactive) | > 100 µM (inactive) | > 100 µM (inactive)
CCOC(=O)CC(=O)Nc1c(C(=O)OCC)sc2nc(SC)nc(Nc3ccc(OC)c(OC)c3)c12 | 28.9 µM (inactive) | 27.5 µM (inactive) | 39.9 | > 100 µM (inactive) | – | 9.25 µM (inactive) | 60.1 µM (inactive) | 7.73 µM (inactive) | 28.7 µM (inactive) | 39.4 µM (inactive) | > 100 µM (inactive) | 75.2 µM (inactive) | 13.6 µM (inactive) | 8.77 µM (inactive) | 52.6 µM (inactive) | – | 7.59 µM (inactive) | – | > 100 µM (inactive) | 10.7 µM (inactive)
COc1cc(C2SCC(=O)N2c2ccc(-n3c(-c4ccccc4)nc4ccccc4c3=O)cc2)cc(OC)c1OC (stereo not given) | > 100 µM (inactive) | > 100 µM (inactive) | 71.1 | > 100 µM (inactive) | > 100 µM (inactive) | 28.6 µM (inactive) | > 100 µM (inactive) | 20.1 µM (inactive) | > 100 µM (inactive) | > 100 µM (inactive) | – | – | > 100 µM (inactive) | > 100 µM (inactive) | > 100 µM (inactive) | > 100 µM (inactive) | > 100 µM (inactive) | > 100 µM (inactive) | 8.71 µM (inactive) | –
O=[N+]([O-])c1ccc(/C=N/CC2CCCN3CCCCC23)cc1 (stereo not given) | > 100 µM (inactive) | > 100 µM (inactive) | 42.7 | 26.7 µM (inactive) | > 100 µM (inactive) | > 100 µM (inactive) | 16.9 µM (inactive) | > 100 µM (inactive) | > 100 µM (inactive) | 15.5 µM (inactive) | > 100 µM (inactive) | – | > 100 µM (inactive) | > 100 µM (inactive) | > 100 µM (inactive) | 17.3 µM (inactive) | > 100 µM (inactive) | > 100 µM (inactive) | 34.2 µM (inactive) | 46 µM (inactive)
CNC(=O)OC(C)CN1c2ccccc2Sc2ccccc21 (stereo not given) | > 100 µM (inactive) | > 100 µM (inactive) | 32.1 | 7.69 µM (inactive) | > 100 µM (inactive) | 76.9 µM (inactive) | 80 µM (inactive) | > 100 µM (inactive) | 59.3 µM (inactive) | 75.2 µM (inactive) | > 100 µM (inactive) | > 100 µM (inactive) | > 100 µM (inactive) | 76 µM (inactive) | > 100 µM (inactive) | – | 45.1 µM (inactive) | > 100 µM (inactive) | > 100 µM (inactive) | 36.2 µM (inactive)
O=c1[nH][nH]c(=O)n1CCCCCCn1c(=O)[nH][nH]c1=O | > 100 µM (inactive) | > 100 µM (inactive) | > 100 | > 100 µM (inactive) | – | – | > 100 µM (inactive) | > 100 µM (inactive) | – | > 100 µM (inactive) | > 100 µM (inactive) | > 100 µM (inactive) | > 100 µM (inactive) | > 100 µM (inactive) | > 100 µM (inactive) | > 100 µM (inactive) | – | > 100 µM (inactive) | > 100 µM (inactive) | > 100 µM (inactive)
COc1ccc(CNc2nc(NCc3ccc(OC)cc3)nc(N3CCOCC3)n2)cc1 | 11 µM (inactive) | 19.1 µM (inactive) | 2.29 | 2.74 µM (inactive) | 7.11 µM (inactive) | 22.8 µM (inactive) | 2.79 µM (inactive) | 4.23 µM (inactive) | 7.91 µM (inactive) | – | 1.03 µM (active) | 19.2 µM (inactive) | 3.95 µM (inactive) | 2.84 µM (inactive) | 4.26 µM (inactive) | 1.69 µM (inactive) | 2.77 µM (inactive) | 6.31 µM (inactive) | 62.8 µM (inactive) | > 100 µM (inactive)
CC(=O)Nc1ccccc1C=C1c2ccccc2-c2ccccc21 | 36.3 µM (inactive) | 24.8 µM (inactive) | 45.8 | > 100 µM (inactive) | 19.5 µM (inactive) | – | > 100 µM (inactive) | > 100 µM (inactive) | 33 µM (inactive) | > 100 µM (inactive) | > 100 µM (inactive) | 28 µM (inactive) | 20.2 µM (inactive) | 18.7 µM (inactive) | 35.9 µM (inactive) | 50.2 µM (inactive) | 20.9 µM (inactive) | 17.8 µM (inactive) | 16.2 µM (inactive) | 20.8 µM (inactive)
OC(COC(c1ccccc1)(c1ccccc1)c1ccccc1)C(O)CC1SCCS1 (stereo not given) | 13.9 µM (inactive) | 20 µM (inactive) | 21.8 | 13.9 µM (inactive) | 12 µM (inactive) | – | 12.4 µM (inactive) | 12.2 µM (inactive) | 10.2 µM (inactive) | 13.5 µM (inactive) | 10 µM (inactive) | 14.9 µM (inactive) | – | 16.3 µM (inactive) | 19.2 µM (inactive) | 5.22 µM (inactive) | – | 21.7 µM (inactive) | 10.9 µM (inactive) | 10.2 µM (inactive)
COC(=O)/C=C/[C@@H]1[C@H](C)N1S(=O)(=O)c1ccc(C)cc1 (stereo not given in full) | > 100 µM (inactive) | > 100 µM (inactive) | > 100 | > 100 µM (inactive) | > 100 µM (inactive) | – | > 100 µM (inactive) | > 100 µM (inactive) | > 100 µM (inactive) | 56.4 µM (inactive) | > 100 µM (inactive) | > 100 µM (inactive) | > 100 µM (inactive) | > 100 µM (inactive) | > 100 µM (inactive) | > 100 µM (inactive) | > 100 µM (inactive) | > 100 µM (inactive) | – | > 100 µM (inactive)
O=[N+]([O-])c1ccc([I+]c2ccccc2)cc1 | 2.05 µM (inactive) | 2.8 µM (inactive) | 7.35 | 5.4 µM (inactive) | 11.6 µM (inactive) | 9.79 µM (inactive) | 2.97 µM (inactive) | 3.85 µM (inactive) | 16.4 µM (inactive) | – | 4.78 µM (inactive) | 9.08 µM (inactive) | 1.92 µM (inactive) | 8.3 µM (inactive) | 7.98 µM (inactive) | 11.2 µM (inactive) | 1.27 µM (inactive) | 5.52 µM (inactive) | 6.03 µM (inactive) | 3.54 µM (inactive)
N#Cc1ccc2[nH]c3c(c2c1)CC(=O)Nc1ccccc1-3 [PAULLONE 2] | > 100 µM (inactive) | > 100 µM (inactive) | > 100 | > 100 µM (inactive) | > 100 µM (inactive) | > 100 µM (inactive) | > 100 µM (inactive) | > 100 µM (inactive) | 99.8 µM (inactive) | > 100 µM (inactive) | – | > 100 µM (inactive) | 28.8 µM (inactive) | > 100 µM (inactive) | > 100 µM (inactive) | > 100 µM (inactive) | > 100 µM (inactive) | > 100 µM (inactive) | > 100 µM (inactive) | > 100 µM (inactive)
O=C1NC(=S)N/C1=C\c1ccc(Sc2ccccc2C(=O)O)s1 | > 100 µM (inactive) | > 100 µM (inactive) | > 100 | 44.8 µM (inactive) | > 100 µM (inactive) | – | > 100 µM (inactive) | > 100 µM (inactive) | > 100 µM (inactive) | > 100 µM (inactive) | > 100 µM (inactive) | > 100 µM (inactive) | 22.1 µM (inactive) | > 100 µM (inactive) | > 100 µM (inactive) | > 100 µM (inactive) | > 100 µM (inactive) | > 100 µM (inactive) | > 100 µM (inactive) | > 100 µM (inactive)
